Laboratory results as given in ChEMBL document CHEMBL1201862, “PubChem BioAssay data set” (2004).
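Cultured in 96-well plates, cells were exposed to test compound for 48 hours across five concentrations. The concentration for 50% growth inhibition is given as GI50.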 The source made the active and inactive calls. Rule as the data show it: active = GI50 up to about 1.1 µM and inactive = higher.

How the values were obtained:
Assay in all cases: inhibition of tumour cell growth, NCI panel, 48 h
BT-549 = test system: BT-549
CAKI-1 = test system: CAKI-1
CCRF-CEM = test system: CCRF-CEM
COLO 205 = test system: COLO 205
HCT-116 = test system: HCT-116
HCT-15 = test system: HCT-15
K562 = test system: K562
KM12 = test system: KM12
M14 = test system: M14
MDA-MB-231 = test system: MDA-MB-231
MOLT-4 = test system: MOLT-4
NCI-H226 = test system: NCI-H226
OVCAR-5 = test system: OVCAR-5
OVCAR-8 = test system: OVCAR-8
SF-268 = test system: SF-268
SN12C = test system: SN12C
T47D = test system: T47D

Row | Compound | GI50 (BT-549) | GI50 (CAKI-1) | GI50 (CCRF-CEM) | GI50 (COLO 205) | GI50 (HCT-116) | GI50 (HCT-15) [µM] | GI50 (K562) | GI50 (KM12) | GI50 (M14) | GI50 (MDA-MB-231) | GI50 (MOLT-4) | GI50 (NCI-H226) | GI50 (OVCAR-5) | GI50 (OVCAR-8) | GI50 (SF-268) | GI50 (SN12C) | GI50 (T47D)
1 | CC(=O)OCC1OC(n2c3c(cc(C#N)c2=S)CCCCC3)C(OC(C)=O)C(OC(C)=O)C1OC(C)=O (configuration not stated) | > 100 µM (inactive) | > 100 µM (inactive) | > 100 µM (inactive) | > 100 µM (inactive) | > 100 µM (inactive) | > 100 | > 100 µM (inactive) | > 100 µM (inactive) | > 100 µM (inactive) | > 100 µM (inactive) | > 100 µM (inactive) | > 100 µM (inactive) | > 100 µM (inactive) | > 100 µM (inactive) | > 100 µM (inactive) | > 100 µM (inactive) | 29.4 µM (inactive)
2 | Cc1c(Cl)c(S(N)(=O)=O)cc2c1N=CNS2(=O)=O | > 100 µM (inactive) | > 100 µM (inactive) | > 100 µM (inactive) | > 100 µM (inactive) | > 100 µM (inactive) | > 100 | > 100 µM (inactive) | > 100 µM (inactive) | > 100 µM (inactive) | > 100 µM (inactive) | > 100 µM (inactive) | > 100 µM (inactive) | > 100 µM (inactive) | > 100 µM (inactive) | > 100 µM (inactive) | > 100 µM (inactive) | > 100 µM (inactive)
3 | Cc1ccc(OCC2=NN3C(=O)/C(=C\c4ccc([N+](=O)[O-])o4)SC3N2)cc1 (configuration not stated) | 12.5 µM (inactive) | 14.6 µM (inactive) | 2.99 µM (inactive) | 3.19 µM (inactive) | 3.63 µM (inactive) | 2.42 | 0.711 µM (active) | 15.8 µM (inactive) | 8.47 µM (inactive) | 12.4 µM (inactive) | 2.33 µM (inactive) | 15.4 µM (inactive) | 19.2 µM (inactive) | 3.66 µM (inactive) | 4.07 µM (inactive) | 16.9 µM (inactive) | 2.17 µM (inactive)
4 | N#CCCN(CCC#N)c1ccc(/C=C2\SC(=S)NC2=O)cc1 | 31.8 µM (inactive) | 23 µM (inactive) | > 100 µM (inactive) | > 100 µM (inactive) | > 100 µM (inactive) | > 100 | > 100 µM (inactive) | > 100 µM (inactive) | > 100 µM (inactive) | 30.3 µM (inactive) | > 100 µM (inactive) | > 100 µM (inactive) | > 100 µM (inactive) | 44.2 µM (inactive) | > 100 µM (inactive) | > 100 µM (inactive) | > 100 µM (inactive)
5 | CC(C)c1ccc2c(c1)[C@@]1(C)CC[C@H](C)C(C)(C)C1CC2 (some centres not stated) | 20.6 µM (inactive) | 23.9 µM (inactive) | 23.7 µM (inactive) | 20.1 µM (inactive) | 18.4 µM (inactive) | 18.1 | 32.2 µM (inactive) | 18 µM (inactive) | 18.9 µM (inactive) | 19.5 µM (inactive) | 37 µM (inactive) | 17.3 µM (inactive) | 24.4 µM (inactive) | 18.6 µM (inactive) | 19.1 µM (inactive) | 17.7 µM (inactive) | 26.1 µM (inactive)
6 | CC(C)(C)c1ccc(-c2nnc(-c3cc(C#N)cc(-c4nnc(-c5ccc(C(C)(C)C)cc5)o4)c3)o2)cc1 | > 100 µM (inactive) | > 100 µM (inactive) | > 100 µM (inactive) | > 100 µM (inactive) | > 100 µM (inactive) | > 100 | > 100 µM (inactive) | > 100 µM (inactive) | > 100 µM (inactive) | > 100 µM (inactive) | > 100 µM (inactive) | > 100 µM (inactive) | > 100 µM (inactive) | > 100 µM (inactive) | > 100 µM (inactive) | > 100 µM (inactive) | > 100 µM (inactive)
